From patent publication US5981777A, “Recovery of taxanes from plant material” (The Regents of the University of California, priority 1997, dated 1999)

Assays:
[1] = test system: taxol-specific (TA12) monoclonal antibody; assay: indirect competitive immunoassay, cross-reactivity with TA12; set-up: species or system mouse; settings: > x = highest concentration tested (270 or 300 ng/ml), read-out: IC50 TA12 (concentration of analyte required to inhibit antibody binding to solid phase antigen by 50%)
From the text: (§1) A preferred antibody is TA14 available from Hawaii Biotechnology Group is particularly useful for this purpose. The cross-reactivity of polyclonal anti-taxane (TA11) and taxol- (TA12), baccatin III- (TA13), or "generic taxane"-specific (TA14) monoclonal antibodies as determined by indirect competitive immunoassays is set forth in Table 1. All of these antibodies are available from Hawaii Biotechnology group.
(§2) ^a Crossreactivity is expressed as the concentration of analyte
(§3) required to inhibit antibody binding to solid phase antigen by 50%
(§4) (IC50) in the indicated competitive immunoassay. Values expressed as
(§5) > x represent the highest concentration tested (either 270 or 300 ng/ml).

[2] = test system: polyclonal anti-taxane (TA11) antibody; assay: indirect competitive immunoassay, cross-reactivity with TA11; settings: > x = highest concentration tested (270 or 300 ng/ml), read-out: IC50 TA11 (concentration of analyte required to inhibit antibody binding to solid phase antigen by 50%)
From the text: as §1, §2, §3, §4, §5

[3] = test system: "generic taxane"-specific (TA14) monoclonal antibody; assay: indirect competitive immunoassay, cross-reactivity with TA14; set-up: species or system mouse; settings: > x = highest concentration tested (270 or 300 ng/ml), read-out: IC50 TA14 (concentration of analyte required to inhibit antibody binding to solid phase antigen by 50%)
From the text: as §1, §2, §3, §4, §5

[4] = test system: baccatin III-specific (TA13) monoclonal antibody; assay: indirect competitive immunoassay, cross-reactivity with TA13; set-up: species or system mouse; settings: > x = highest concentration tested (270 or 300 ng/ml), read-out: IC50 TA13 (concentration of analyte required to inhibit antibody binding to solid phase antigen by 50%)
From the text: as §1, §2, §3, §4, §5

[5] = test system: "generic taxane"-specific (TA14) monoclonal antibody; settings: in words; Kingston et al. J. Nat. Prod. 53:1-12 (1990); cited from earlier work
[6] = test system: taxol-specific (TA12) monoclonal antibody; settings: in words; cited from earlier work
[7] = test system: baccatin III-specific (TA13) monoclonal antibody; settings: in words; cited from earlier work

Row | Structure (SMILES) | IC50 [1] [nM] | IC50 [2] [nM] | cross-reaction with TA14 [5] | other results
1 | CC(=O)O[C@@]12CO[C@@H]1C[C@@H](O)[C@@]1(C)C(=O)[C@H](O)C3=C(C)[C@@H](O)C[C@@](O)([C@@H](OC(=O)c4ccccc4)[C@H]21)C3(C)C [7-epi-10-deacetylbaccatin III] | > 496 | 34 | – | –
2 | CC(=O)O[C@@]12CO[C@@H]1C[C@@H](O)[C@@]1(C)C(=O)[C@H](O)C3=C(C)[C@@H](OC(=O)[C@H](O)[C@@H](NC(=O)c4ccccc4)c4ccccc4)C[C@@](O)([C@@H](OC(=O)c4ccccc4)[C@H]21)C3(C)C [7-epi-10-deacetyltaxol] | 25 | 1.2 | – | IC50 [3]: 15 nM; IC50 [4]: > 333 nM
3 | CC(=O)O[C@H]1C(=O)[C@]2(C)[C@H](O)C[C@H]3OC[C@@]3(OC(C)=O)[C@H]2[C@H](OC(=O)c2ccccc2)[C@]2(O)C[C@H](OC(=O)[C@H](O)[C@@H](NC(=O)c3ccccc3)c3ccccc3)C(C)=C1C2(C)C [7-epi-taxol] | 80 | 8 | – | IC50 [3]: 50 nM; IC50 [4]: > 316 nM
4 | CC(=O)O[C@@]12CO[C@@H]1C[C@H](O[C@@H]1OC[C@@H](O)[C@H](O)[C@H]1O)[C@@]1(C)C(=O)[C@H](O)C3=C(C)[C@@H](OC(=O)[C@H](O)[C@@H](NC(=O)c4ccccc4)c4ccccc4)C[C@@](O)([C@@H](OC(=O)c4ccccc4)[C@H]21)C3(C)C [7-xylosyl-10-deacetyltaxol] | – | 1.8 | – | –
5 | CC(=O)O[C@@]12CO[C@@H]1C[C@H](O)[C@@]1(C)C(=O)[C@H](O)C3=C(C)[C@@H](OC(=O)[C@H](O)[C@@H](NC(=O)c4ccccc4)c4ccccc4)C[C@@](O)([C@@H](OC(=O)c4ccccc4)[C@H]21)C3(C)C [10-deacelyltaxol] | – | 0.7 | – | –
6 | CC(=O)O[C@@]12CO[C@@H]1C[C@H](O)[C@@]1(C)C(=O)[C@H](O)C3=C(C)[C@@H](O)C[C@@](O)([C@@H](OC(=O)c4ccccc4)[C@H]21)C3(C)C [10-deacetylbaccatin III] | – | – | cross reacts | –
7 | CC(=O)O[C@H]1C(=O)[C@@]2(C)[C@H]([C@H](OC(=O)c3ccccc3)[C@]3(O)C[C@H](OC(=O)[C@H](O)[C@@H](NC(=O)c4ccccc4)c4ccccc4)C(C)=C1C3(C)C)[C@]1(OC(C)=O)CO[C@@H]1C[C@@H]2O [Taxol ® (paclitaxel), paclitaxel] | – | 0.5 | cross reacts | reactivity with TA12 [6]: specifically reactive
8 | CC(=O)O[C@@]12CO[C@@H]1C[C@H](O)[C@@]1(C)C(=O)[C@H](O)C3=C(C)[C@@H](OC(=O)[C@H](O)[C@@H](NC(=O)OC(C)(C)C)c4ccccc4)C[C@@](O)([C@@H](OC(=O)c4ccccc4)[C@H]21)C3(C)C [Taxotere ® (docetaxel), docetaxel] | > 318 | – | – | IC50 [3]: 10 nM; IC50 [4]: > 318 nM
9 | CC(=O)O[C@H]1C(=O)[C@@]2(C)[C@H]([C@H](OC(=O)c3ccccc3)[C@]3(O)C[C@H](O)C(C)=C1C3(C)C)[C@]1(OC(C)=O)CO[C@@H]1C[C@@H]2O [baccatin III] | – | – | cross reacts | binding to TA13 [7]: binds with equal affinity
10 | CC(=O)O[C@H]1C(=O)[C@]2(C)[C@H](O)C[C@H]3OC[C@@]3(OC(C)=O)[C@H]2[C@H](OC(=O)c2ccccc2)[C@]2(O)C[C@H](O)C(C)=C1C2(C)C [baccatin V] | – | – | – | binding to TA13 [7]: binds with equal affinity
11 | C/C=C(\C)C(=O)N[C@@H](c1ccccc1)[C@@H](O)C(=O)O[C@H]1C[C@@]2(O)[C@@H](OC(=O)c3ccccc3)[C@@H]3[C@]4(OC(C)=O)CO[C@@H]4C[C@H](O)[C@@]3(C)C(=O)[C@H](OC(C)=O)C(=C1C)C2(C)C [cephalomannine] | – | 1 | cross reacts | –
